From patent US20230257367A1, “NOVEL THYROID HORMONE BETA RECEPTOR AGONIST” (Chengdu Kanghong Pharmaceutical Co., Ltd., priority 2020, published 2023)
Where two headings read alike, the source gives them in different places.

Key:
[1] = molecular target: T1, TRα-LBD/RXRα (Homo sapiens, UniProt P10827); assay: In vitro binding experiment (TR-FRET SRC2-2 co-activator peptide recruitment), TRα; format: biochemical; conditions: 4 h incubation at room temperature
T1 construct: TRα-LBD (Invitrogen, PV4762), or TRβ-LBD (Invitrogen, PV4764) with a GST tag were used; purchased Invitrogen (TRα-LBD); Pharmaron (RXRα) PV4762
T1 sequence (P10827 1-410 isoform P10827-2, other chains not shown): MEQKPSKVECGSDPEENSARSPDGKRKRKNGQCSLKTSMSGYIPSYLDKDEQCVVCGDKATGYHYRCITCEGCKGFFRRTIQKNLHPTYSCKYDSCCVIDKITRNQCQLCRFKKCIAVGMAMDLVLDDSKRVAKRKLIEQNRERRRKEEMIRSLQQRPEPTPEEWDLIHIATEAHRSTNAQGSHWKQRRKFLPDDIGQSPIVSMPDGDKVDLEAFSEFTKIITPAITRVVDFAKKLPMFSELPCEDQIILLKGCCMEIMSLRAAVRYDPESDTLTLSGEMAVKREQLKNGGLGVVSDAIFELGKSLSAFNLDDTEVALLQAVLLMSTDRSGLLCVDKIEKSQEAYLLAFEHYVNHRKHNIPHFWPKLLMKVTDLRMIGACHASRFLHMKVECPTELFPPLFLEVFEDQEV
T1 sequence (P19793 whole entry partner, other chains not shown, the tested form may be a part): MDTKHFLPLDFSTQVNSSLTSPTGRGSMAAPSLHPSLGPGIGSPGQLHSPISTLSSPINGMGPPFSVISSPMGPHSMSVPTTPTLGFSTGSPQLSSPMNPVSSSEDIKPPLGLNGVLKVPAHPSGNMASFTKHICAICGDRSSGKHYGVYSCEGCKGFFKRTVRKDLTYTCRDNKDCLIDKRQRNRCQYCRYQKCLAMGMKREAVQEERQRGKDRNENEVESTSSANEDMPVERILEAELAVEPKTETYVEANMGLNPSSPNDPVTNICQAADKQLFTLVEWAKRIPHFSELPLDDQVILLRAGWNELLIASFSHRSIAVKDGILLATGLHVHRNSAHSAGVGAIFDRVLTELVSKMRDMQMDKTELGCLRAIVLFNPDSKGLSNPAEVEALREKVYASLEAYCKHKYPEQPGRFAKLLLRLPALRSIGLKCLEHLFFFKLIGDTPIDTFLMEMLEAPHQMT

[2] = molecular target: T2, TRβ-LBD/RXRα (Homo sapiens, UniProt P10828); assay: In vitro binding experiment (TR-FRET SRC2-2 co-activator peptide recruitment), TRβ; format: biochemical; conditions: 4 h incubation at room temperature
T2 construct: TRβ-LBD (Invitrogen, PV4764) with a GST tag were used; purchased Invitrogen (TRβ-LBD); Pharmaron (RXRα) PV4764
T2 sequence (P10828 217-461 limits assumed, other chains not shown): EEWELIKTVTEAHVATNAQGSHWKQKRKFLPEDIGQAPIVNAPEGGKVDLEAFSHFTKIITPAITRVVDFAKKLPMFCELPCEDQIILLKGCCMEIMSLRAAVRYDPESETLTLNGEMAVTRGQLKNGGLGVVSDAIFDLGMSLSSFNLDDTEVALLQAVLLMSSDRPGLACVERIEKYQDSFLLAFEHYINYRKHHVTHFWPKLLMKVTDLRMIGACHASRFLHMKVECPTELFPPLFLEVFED
T2 sequence (P19793 whole entry partner, other chains not shown, the tested form may be a part): as the sequence (P19793 whole entry partner, other chains not shown, the tested form may be a part) above

[3] = tested on: primary hepatocyte; assay: Hepatotoxicity detection in vitro (CellTiter-Glo); format: cell-based, human; conditions: primary hepatocytes
Protocol: Information of Primary Hepatocyte
Step 1: a test substance was prepared into a 200 mM DMSO stock solution, and then subjected to 3-times gradient continuous dilution by 7 concentrations, then 1.5 μL of each of the solutions of the 8 concentrations was added into 498.5 μL of incubation culture medium (with a composition referring to Table 5, directly mixed evenly) to prepare a working solution, and the incubation culture medium was preheated at 37° C. before preparation. DMSO was used as a solvent control. DMSO contents in the working solution and the solvent control were both 0.3 vol %. Concentrations of compounds were as follows:
Step 2: Plate Inoculation and Cell Culture
Second Step: Plate Inoculation and Culture of Cells
1) A tube of hepatocytes of the donor used in the experiment preserved at ultra-low temperature was taken, and the hepatocytes were ensured to be still frozen at low temperature before resuscitation. The hepatocytes were quickly placed in a water bath at 37° C. and gently shaken until all ice crystals were dispersed, and were transferred to a biosafety cabinet after spraying 70 vol % ethanol.
2) Contents of hepatocyte tubules were poured into a 50 mL centrifuge tube containing 50 mL of resuscitation culture medium (with a composition referring to Table 3, directly mixed evenly), and centrifuged at 80 g for 8 minutes. After centrifugation, the resuscitation culture medium was sucked out and an inoculation culture medium was added (with a composition referring to Table 4, directly mixed evenly). The cells were counted by AO/PI staining to obtain a cell suspension with a cell density of 0.2×10^6 cells per milliliter.
3) The cell suspension above was inoculated into a 96-well plate coated with collagen I, with 100 μL per well. The culture plate was placed in a 5% CO2 incubator with 95% relative humidity to culture for 4 hours to 6 hours.
4) After incubation for 4 hours to 6 hours, the state of the cells was observed under microscope. The culture plate was shaken gently, the inoculation culture medium was sucked out, and 100 μL of incubation culture medium was added into each well (with a composition referring to Table 5). A toxicity test could be carried out after culturing in the incubator for 18 hours to 20 hours.
5) Before administration, the morphology of the cells was observed under microscope. The culture medium in the culture plate was sucked out, and 100 μL of solvent control (DMSO), or test substance working solution was added into each well. Three parallel samples were tested under each condition.
6) The newly prepared working solution or solvent control was used for solution exchange every 24 hours after dosing.
After the working solution acted for 48 hours, the morphology of the cells was observed under microscope for later use.
Step 3: Cytotoxicity Detection
1) A CellTiter-Glo (Promega, article number G9243) reagent stored at −20° C. was melted in a water bath at 37° C.
2) After the cell culture plate obtained above was incubated for 48 hours, 50 μL of CellTiter-Glo solution was directly added into each experimental well.
3) The cell culture plate was vortexed at 400 rpm for 10 minutes, and incubated at room temperature to stabilize a luminescence signal.
After 10 minutes 100 μL of reaction solution was sucked from each well and transferred to a new white nontransparent-bottom flat plate (Corning 96-well plate Cat No. 3917). The
chemiluminescence value of each well was read by a microplate reader (a luminescence value of the white nontransparent-bottom flat plate was recorded as “a luminescence valueblank”; and a luminescence value of the solvent control was recorded as “a luminescence valuesolvent”).
Cell viability(%)=[(luminescence valueto-be-tested compound−luminescence valueblank)/(luminescence valuesolvent−luminescence valueblank)]×100% […]

[4] = PK experiment of cynomolgus monkeys; format: in vivo; conditions: cynomolgus monkey, plasma; for half-life / AUC(0-t) / Cmax: single dose; for half-life: male cynomolgus monkeys, read-out: Half-life period (T1/2) (converted); for AUC(0-t): read-out: Area under the curve AUC(0-t) in the case of administration; for Cmax: read-out: Peak concentration Cmax
Excerpt: The purpose of this experiment was to evaluate the pharmacokinetic behavior of the compound to be tested after single intravenous and intragastric administration, and to study the bioavailability after intragastric administration, providing animal experimental data for clinical studies.
Preparation of solutions for intravenous injection and intragastric administration: an appropriate amount of compound to be tested was accurately weighed, and mixed with a suitable solvent (5 vol % DMSO+10 vol % polyethylene glycol−15-hydroxystearate+85 vol % normal saline). After vortex, or ultrasound processing, a clear and transparent solution (the solution for intravenous injection administration), or a uniform suspension was obtained. The solution administrated by intravenous injection needed to be filtered through a 0.22 μm filter membrane
Experimental design: before the first dose the cynomolgus monkeys were divided into 2 groups by body weight with 3 male cynomolgus monkeys in each group, where animals in group 1 were given the compound to be tested (1 mg/kg) by single intravenous injection (IV); and animals in the 2rd group were administrated with the compound to be tested (5 mg/kg) by single intragastric administration (PO). The animals were weighed before administration, and dosages were calculated based on the weights of the animals.
Sample collection: a whole blood sample (about 0.2 mL) was collected at a specified time by venipuncture of an upper limb (or other suitable blood collection sites), and the actual blood collection time was recorded in test records. The acceptable error for one acquisition time point within 1 hour after administration is ±1 minute, and the acceptable error for other time points is ±5% of the theoretical time. All blood samples were immediately transferred to a labeled commercial centrifuge tube containing K2-EDTA. After blood sample collection, the blood sample was centrifuged at 4° C. and 3,200 g for 10 minutes, the supernatant plasma was sucked, quickly put in dry ice, and kept in a refrigerator at −70±10° C. for LC-MS/MS analysis. The collection time of both groups was 0.083 hour, 0.25 hour, 0.5 hour, 1 hour, 2 hours, 4 hours, 8 hours and 24 hours after administration.
Data processing: Area under the curve (AUC(0-t) and AUC(0-∞)), elimination half-life (T½), peak concentration (Cmax), time to reach maximum plasma concentration (Tmax), etc., were calculated by the non-compartment analysis module in Phoenix WinNonlin 7.0.

EC50 [1]: 0.094 µM | EC50 [2]: 0.007 µM | half-life ([4]; IV, 1 mg/kg): 9 h | half-life ([4]; PO, 5 mg/kg): 16.7 h | bioavailability ([4]; male, PO 5 mg/kg vs IV 1 mg/kg, read-out: Bioavailability (F)): 73% | AUC(0-t) ([4]; male, IV, 1 mg/kg): 48.8 µg·h/mL | Cmax ([4]; male, IV, 1 mg/kg): 20700 ng/mL | AUC(0-t) ([4]; male, PO, 5 mg/kg): 178 µg·h/mL | Cmax ([4]; male, PO, 5 mg/kg): 18300 ng/mL
Compound: CC(C)c1nc(Oc2c(Cl)cc(-n3ncc(=O)[nH]c3=O)cc2Cl)ncc1O [KH06]
IC50 ([3]; Homo sapiens, Hepatocyte, cell viability after 48 hours): 207000 nM | Cell activity at the highest concentration (%) ([3]; 48 hours, highest working solution concentration 600 μM): 4.50%
